The term IC50 denotes the concentration needed to halve the response being measured.

16 molecules from patent publication US20220009914A1, “Analogs of Nitrofuran Antibiotics to Combat Resistance” (The Trustees of Indiana University, priority 2020, published 2022) can be followed below.

The target in one assay is T1, native MDH (Sus scrofa, UniProt P00346).
T1 sequence (P00346 25-338): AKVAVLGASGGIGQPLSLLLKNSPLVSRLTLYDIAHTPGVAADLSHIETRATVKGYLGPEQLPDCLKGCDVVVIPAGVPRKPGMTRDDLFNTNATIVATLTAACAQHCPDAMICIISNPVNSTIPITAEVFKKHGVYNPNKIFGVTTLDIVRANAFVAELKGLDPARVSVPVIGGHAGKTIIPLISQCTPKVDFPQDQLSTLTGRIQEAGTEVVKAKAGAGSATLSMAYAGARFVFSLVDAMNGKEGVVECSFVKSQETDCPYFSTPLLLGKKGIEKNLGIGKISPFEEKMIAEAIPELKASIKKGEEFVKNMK
Nature of the assay: native MDH enzymatic activity counter-screen. The class given is biochemical, pig. The procedure: Reagent Preparations & Assay Protocol: This assay was performed as described above for the GroEL/ES-dMDH refolding assay; however, the assay protocol differed in the sequence of compound addition to the assay plates. The refolding reactions were allowed to proceed for 45 min at 37° C. in the absence of test compounds (complete refolding of MDH occurs), then quenched with the EDTA stock. Compounds were then pin-transferred into the plates after the EDTA quenching step; thus, compound effects are only possible by inhibiting the fully-refolded MDH reporter substrate. […] A340 nm measurements were recorded at 0.5 minutes (start point) and at successive time points until the amount of NADH consumed reached ˜90% (end point, generally between 20-35 minutes). Compounds were tested in 8-point, 3-fold dilution series (62.5 μM to 29 nM during the reporter reaction) in clear, flat-bottom 384-well microtiter plates. IC50 values for the MDH reporter enzyme were determined as described above. Results presented represent the averages of IC50 values obtained from at least five replicates.
Evaluating analogs for inhibiting GroEL/ES-mediated substrate refolding functions. […] We first evaluated all test compounds in our standard GroEL/ES-mediated refolding assays that employ either malate dehydrogenase (MDH) or rhodanese (Rho) as the denatured substrate reporter enzymes. When denatured, these enzymes are efficiently folded by GroEL/ES in the absence of inhibitors, and thus act as reporters to determine the degree of inhibition against the bacterial chaperonin system. Inhibition was examined in the presence of these two orthogonal substrates in order to support that GroEL/ES inhibitors were on-target. To further support on-target effects against GroEL/ES, we counter-screened for inhibition of the native MDH and Rho enzymatic reporter reactions, where test compounds were added after the denatured MDH and Rho substrate enzymes were completely refolded by GroEL/ES.
(Counterscreens check selectivity or assay interference.)

For a further assay, the target named is T2, E. coli GroEL (Escherichia coli, UniProt P0A6F5).
T2 construct: made in house; host or cells: NEB 5-alpha E. coli
Nature of the assay: GroEL-mediated ATPase assay. The format is biochemical. As to the method: Evaluating compounds for inhibition in the GroEL-mediated ATPase assay. All compounds were evaluated for inhibiting E. coli GroEL-mediated ATPase activity as per our previously reported procedure although employing only GroEL in solution and not containing GroES or denatured MDH. Evaluating compounds for inhibition in the GroEL-mediated ATPase assay.
Reagent preparation: For this assay, four primary reagent solutions were prepared: 1) GroEL protein solution; 2) ATP initiation solution; 3) EDTA quench solution; 4) malachite green reporter solution. The GroEL protein solution consisted of 100 nM of GroEL in folding buffer (50 mM Tris-HCl, pH 7.4, 50 mM KCl, 10 mM MgCl2, and 1 mM DTT), which was prepared immediately prior to dispensing into the assay plates. For the ATP initiation solution, ATP solid was diluted into folding buffer to a final concentration of 2 mM. Quench solution contained 300 mM EDTA (pH 8.0). The malachite green reporter solution contained 0.034% w/v malachite green, 1.04% w/v ammonium molybdate, 1% Tween-20, and 1 M HCl dissolved in H2O.
Assay Protocol: First, 10 μL aliquots of the GroEL protein solution were dispensed into clear, flat-bottom 384-well polystyrene plates. […] After incubating for 45 minutes at 37° C., 10 μL of the EDTA quench solution was added to quench the reaction cycle. Then, 60 μL of the malachite green reporter solution was added and the plates were incubated at room temperature for 10 min. The absorbance of the malachite green-phosphate complex was measured at 600 nm using a Molecular Devices SpectraMax Plus384 microplate reader. A second set of baseline control plates were prepared analogously, but without GroEL protein solution, to correct for possible interference from compound absorbance or turbidity. […] Results presented represent the averages of IC50 values obtained from at least four replicates.
Evaluating analogs for inhibiting GroEL-mediated ATPase activity. […] Thus, we further tested analogs in a well-established GroEL ATPase assay that employed malachite green to monitor inorganic phosphate liberated as GroEL hydrolyzed ATP. Briefly, a solution of GroEL was incubated with test compounds (8-point, 3-fold dilution series) and the assay was initiated by addition of ATP. After incubating for 45 minutes, the ATPase reaction was quenched by the addition of EDTA. Malachite green was then added to the assay to bind and detect free phosphates in solution (absorbance detection at k=600 nm). If analogs inhibited ATPase activity, then there would be no free phosphates for malachite green to bind, leading to minimal absorbance at 600 nm.

Setting [1] is: without NfsB nitroreductase, compounds added after refolding, read-out: Native MDH Activity IC50.

Where two headings read alike, the source gives them in different places.

T2 sequence (P0A6F5 2-548): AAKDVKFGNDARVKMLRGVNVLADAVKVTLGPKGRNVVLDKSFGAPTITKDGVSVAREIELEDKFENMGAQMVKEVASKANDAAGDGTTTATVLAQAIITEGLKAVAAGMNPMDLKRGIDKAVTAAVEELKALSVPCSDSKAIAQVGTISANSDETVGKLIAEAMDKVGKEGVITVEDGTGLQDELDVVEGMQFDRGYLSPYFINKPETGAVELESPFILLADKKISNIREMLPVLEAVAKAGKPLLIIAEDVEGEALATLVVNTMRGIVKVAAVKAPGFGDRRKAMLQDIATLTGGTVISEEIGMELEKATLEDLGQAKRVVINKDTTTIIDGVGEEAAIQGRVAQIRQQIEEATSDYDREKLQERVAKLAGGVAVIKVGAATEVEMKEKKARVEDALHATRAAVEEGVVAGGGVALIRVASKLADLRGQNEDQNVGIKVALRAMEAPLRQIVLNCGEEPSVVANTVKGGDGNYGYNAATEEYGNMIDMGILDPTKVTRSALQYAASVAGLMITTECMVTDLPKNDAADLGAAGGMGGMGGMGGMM

Regarding `COc1ccc(C(=O)N/N=C/c2cccc3ccccc23)cc1` [Compound 33, 4-methoxy-N′-(naphthalen-1-ylmethylene)benzohydrazide], the half-inhibitory concentration (IC50) on native MDH (setting [1]) is over 63 µM; against E. coli GroEL it was over 250 µM.
On to `O=C1CN(/N=C/c2ccc(O)c3ncccc23)C(=O)N1` [Compound 2, 1-(((8-hydroxyquinolin-5-yl)methylene)amino)imidazolidine-2,4-dione], for which the concentration for half-maximal inhibition (IC50) on native MDH (setting [1]) is over 63 µM; at E. coli GroEL, over 250 µM.
Take `CCN(CC)S(=O)(=O)c1cccc(C(=O)N/N=C/c2ccc(O)c3ncccc23)c1` [Compound 12, N,N-diethyl-3-(2-((8-hydroxyquinolin-5-yl)methylene)hydrazine-1-carbonyl)benzenesulfonamide]: the values for the IC50 on native MDH (setting [1]) and against E. coli GroEL were over 63 µM and over 250 µM, respectively.
For the molecule `O=C(N/N=C/c1ccc(O)c2ncccc12)c1ccccc1` [Compound 5, N′-((8-hydroxyquinolin-5-yl)methylene)benzohydrazide], the IC50 was over 63 µM at native MDH (setting [1]) and over 250 µM against E. coli GroEL.
The like results for `O=C(N/N=C/c1ccc(O)c2ncccc12)c1ccc(NS(=O)(=O)c2ccc(Br)cc2)cc1` [Compound 14, 4-bromo-N-(4-(2-((8-hydroxyquinolin-5-yl)methylene)hydrazine-1-carbonyl)phenyl)benzenesulfonamide] were, in that order, over 63 µM and over 250 µM.
The like results for `O=C(N/N=C/c1ccc(O)c2ncccc12)c1cccc2ccccc12` [Compound 9, N′-((8-hydroxyquinolin-5-yl)methylene)-1-naphthohydrazide] were, in that order, over 63 µM and over 250 µM.
The like results for `O=C(N/N=C/c1cccc2ncccc12)c1ccccc1` [Compound 32, N′-(quinolin-5-ylmethylene)benzohydrazide] were, in that order, over 63 µM and over 250 µM.
Regarding `COc1ccc(C(=O)N/N=C/c2ccco2)cc1` [Compound 39, N′-(furan-2-ylmethylene)-4-methoxybenzohydrazide], the IC50 at native MDH (setting [1]) was over 63 µM; against E. coli GroEL, over 250 µM.
As for `O=C(N/N=C/c1ccc(O)c2ncccc12)c1ccc(Cl)s1` [Compound 4, 5-chloro-N′-((8-hydroxyquinolin-5-yl)methylene)thiophene-2-carbohydrazide], the half-inhibitory concentration (IC50) was over 63 µM at native MDH (setting [1]) and over 250 µM against E. coli GroEL.
As for `O=C(N/N=C/c1ccc([N+](=O)[O-])o1)c1ccc(O)cc1` [Nifuroxazide, reference compound], the 50% inhibitory concentration (IC50) against native MDH is over 63 µM; against E. coli GroEL, over 250 µM.
Regarding `COc1ccc(C(=O)N/N=C/c2cccc3ncccc23)cc1` [Compound 31, 4-methoxy-N′-(quinolin-5-ylmethylene)benzohydrazide], the IC50 at native MDH (setting [1]) was over 63 µM; on E. coli GroEL it was over 250 µM.
The like results for `CCN(CC)S(=O)(=O)c1cccc(C(=O)N/N=C/c2ccc([N+](=O)[O-])o2)c1` [Compound 25, N,N-diethyl-3-(2-((5-nitrofuran-2-yl)methylene)hydrazine-1-carbonyl)benzenesulfonamide] were, in that order, over 63 µM and over 250 µM.
Regarding `O=C(N/N=C/c1ccc(O)c2ncccc12)c1ccc(O)cc1` [Compound 7, 4-hydroxy-N′-((8-hydroxyquinolin-5-yl)methylene)benzohydrazide], the IC50 at native MDH (setting [1]) is over 63 µM; on E. coli GroEL, over 250 µM.
Regarding `COc1ccc(C(=O)N/N=C/c2ccc(O)c3ncccc23)cc1` [Compound 1, N′-((8-hydroxyquinolin-5-yl)methylene)-4-methoxybenzohydrazide], the figures for the 50% inhibitory concentration (IC50) at native MDH (setting [1]) and against E. coli GroEL were over 63 µM and over 250 µM, respectively.
The like results for `CCOc1ccc(S(=O)(=O)Nc2ccc(C(=O)N/N=C/c3ccc([N+](=O)[O-])o3)cc2)cc1` [Compound 28, 4-ethoxy-N-(4-(2-((5-nitrofuran-2-yl)methylene)hydrazine-1-carbonyl)phenyl)benzenesulfonamide] were, in that order, over 63 µM and over 250 µM.
Regarding `O=C(N/N=C/c1cccc2ccccc12)c1ccccc1` [Compound 34, N′-(naphthalen-1-ylmethylene)benzohydrazide], the concentration for half-maximal inhibition (IC50) is over 63 µM on native MDH (setting [1]) and over 250 µM against E. coli GroEL.
